From patent US8383581B2, “Short-chain peptides as parathyroid hormone (PTH) receptor agonist” (Cadila Healthcare Limited, priority 2009, dated 2013)
Where a SMILES comes first, the peptide text is derived from it. [ ]: non-standard residue; d: D form. ξ: configuration not given here. ξBip(2'-Et-4'-OMe) = CCc1cc(OC)ccc1-c1ccc(CC(N)C(=O)O)cc1; Arg(NO2) = N=C(NCCC[C@H](N)C(=O)O)N[N+](=O)[O-]; αMePhe(2,6-F2) = C[C@](N)(Cc1c(F)cccc1F)C(=O)O; ξαMePhe(2,6-F2) = CC(N)(Cc1c(F)cccc1F)C(=O)O; ξαMePhe(2-F) = CC(N)(Cc1ccccc1F)C(=O)O; hhPhe = N[C@@H](CCCc1ccccc1)C(=O)O; hArg = N=C(N)NCCCC[C@H](N)C(=O)O; Cit = NC(=O)NCCC[C@H](N)C(=O)O; Nle = CCCC[C@H](N)C(=O)O; Ac5c = NC1(C(=O)O)CCCC1; Ac3c = NC1(C(=O)O)CC1; Aib = CC(C)(N)C(=O)O

Legend:
Assay type in all cases: in vitro ADME
[1] = Stability of peptides in simulated intestinal fluid (pH 7.5); details: pH 7.5; for half-life / half-life (t1/2) in simulated intestinal fluid: simulated gi fluid; for % degradation of peptides in 24 h when incubated with simulated intestinal fluid: 2 μM
Summary of the method: (§1)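 Peptides at 2 μM final incubated 0–24 h at 37 °C (50 mM triethanolamine-HCl, pH 7.8) in each matrix, matrix level set to degrade ~50% PTH(1-34) in 1 h; TFA-quenched, C18 HPLC at 206 nm with ESI-MS peak identification; percent degradation from peak areas at each time point.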

[2] = Stability of peptides in human liver microsomes; details: human, microsomes; for % degradation of peptides in 24 h when incubated with liver microsomes: 2 μM, pH 7.8
Summary of the method: as §1

[3] = Stability of peptides in simulated gastric fluid (pH 1.5; HCl, NaCl and Pepsin); details: pH 1.5; for % degradation of peptides in 24 h when incubated with simulated gastric fluid: 2 μM; for half-life / half-life (t1/2) in simulated gastric fluid: simulated gi fluid
[4] = Stability of peptides in human plasma; details: human, plasma; for metabolised at 24 h, 2 μM: pH 7.8
Summary of the method: as §1

half-life [1]	% degradation of peptides in 24 h when incubated with simulated intestinal fluid [1]	half-life [2]	% degradation of peptides in 24 h when incubated with liver microsomes [2]	% degradation of peptides in 24 h when incubated with simulated gastric fluid [3]	half-life [3]	half-life [4]	metabolised at 24 h, 2 μM [4]	half-life (t1/2) in simulated intestinal fluid [1]	half-life (t1/2) in simulated gastric fluid [3]	half-life (t1/2) in human plasma [4]	half-life (t1/2) in liver microsomes [2]	Compound
> 24 h	00%	2 h	84%	43%	4 h	> 24 h	0%	–	–	–	–	CCCC[C@H](NC(=O)C(C)(Cc1ccccc1F)NC(=O)[C@H](CCC(N)=O)NC(=O)[C@@H](NC(=O)[C@H](CCC(=O)O)NC(=O)C(C)(C)NC(=O)[C@@H](NC(=O)C(C)(C)N)C(C)C)[C@@H](C)CC)C(=O)N[C@@H](Cc1c[nH]cn1)C(=O)N[C@@H](CCC(N)=O)C(=O)NC(C)(Cc1c(F)cccc1F)C(=O)NC(C)(C)C(=O)NC(C)(C)C(=O)NC(C)(Cc1ccccc1F)C(N)=O (some centres unmarked) [Seq. ID. 490] (H-[Aib]V[Aib]EIQ[ξαMePhe(2-F)][Nle]HQ[ξαMePhe(2,6-F2)][Aib][Aib][ξαMePhe(2-F)]-NH2)
> 24 h	00%	2 h	80%	41%	4 h	> 24 h	0%	–	–	–	–	CCCC[C@H](NC(=O)C(C)(Cc1c(F)cccc1F)NC(=O)[C@H](CCC(N)=O)NC(=O)[C@@H](NC(=O)[C@H](CCC(=O)O)NC(=O)C(C)(C)NC(=O)[C@@H](NC(=O)C(C)(C)N)C(C)C)[C@@H](C)CC)C(=O)N[C@@H](Cc1c[nH]cn1)C(=O)N[C@@H](CCC(N)=O)C(=O)NC(C)(Cc1c(F)cccc1F)C(=O)NC(C)(C)C(=O)NC(C)(Cc1c(F)cccc1F)C(=O)NC(C)(Cc1ccccc1F)C(N)=O (some centres unmarked) [Seq. ID. 510] (H-[Aib]V[Aib]EIQ[ξαMePhe(2,6-F2)][Nle]HQ[ξαMePhe(2,6-F2)][Aib][ξαMePhe(2,6-F2)][ξαMePhe(2-F)]-NH2)
–	55%	1 h	79%	12%	–	8 h	78%	(6) h	(8) h	–	–	CCCC[C@H](NC(=O)C(C)(Cc1c(F)cccc1F)NC(=O)[C@H](CCC(N)=O)NC(=O)[C@@H](NC(=O)[C@H](CCC(=O)O)NC(=O)C(C)(C)NC(=O)[C@@H](NC(=O)C(C)(C)N)C(C)C)[C@@H](C)CC)C(=O)N[C@@H](Cc1c[nH]cn1)C(=O)N[C@@H](CCC(N)=O)C(=O)NC(C)(Cc1c(F)cccc1F)C(=O)N[C@@H](C)C(=O)N[C@@H](CCCNC(=N)N[N+](=O)[O-])C(=O)NC(C)(Cc1ccccc1F)C(N)=O (some centres unmarked) [Seq. ID. 525] (H-[Aib]V[Aib]EIQ[ξαMePhe(2,6-F2)][Nle]HQ[ξαMePhe(2,6-F2)]A[Arg(NO2)][ξαMePhe(2-F)]-NH2)
–	50%	1 h	82%	13%	–	8 h	80%	(6) h	(8) h	–	–	CCCC[C@H](NC(=O)[C@](C)(Cc1c(F)cccc1F)NC(=O)[C@H](CCC(N)=O)NC(=O)[C@@H](NC(=O)[C@H](CCC(=O)O)NC(=O)C(C)(C)NC(=O)[C@@H](NC(=O)C(C)(C)N)C(C)C)[C@@H](C)CC)C(=O)N[C@@H](Cc1c[nH]cn1)C(=O)N[C@@H](CCC(N)=O)C(=O)NC(C)(C)C(=O)NC(C)(C)C(=O)N[C@@H](CCCNC(N)=O)C(=O)N[C@@](C)(Cc1c(F)cccc1F)C(N)=O [Seq. ID. 550] (H-[Aib]V[Aib]EIQ[αMePhe(2,6-F2)][Nle]HQ[Aib][Aib][Cit][αMePhe(2,6-F2)]-NH2)
–	43%	1 h	80%	14%	–	8 h	78%	(6) h	(8) h	–	–	CCCC[C@H](NC(=O)C(C)(Cc1c(F)cccc1F)NC(=O)[C@H](CCC(N)=O)NC(=O)[C@@H](NC(=O)[C@H](CCC(=O)O)NC(=O)C(C)(C)NC(=O)[C@@H](NC(=O)C1(N)CCCC1)C(C)C)[C@@H](C)CC)C(=O)N[C@@H](Cc1c[nH]cn1)C(=O)N[C@@H](CCC(N)=O)C(=O)NC(C)(C)C(=O)NC(C)(C)C(=O)NC(C)(C)C(=O)NC(C)(Cc1ccccc1F)C(N)=O (some centres unmarked) [Seq. ID. 560] (H-[Ac5c]V[Aib]EIQ[ξαMePhe(2,6-F2)][Nle]HQ[Aib][Aib][Aib][ξαMePhe(2-F)]-NH2)
0.5 h	100%	0.5 h	100%	100%	0.5 h	–	71%	–	–	(9) h	–	CCCC[C@H](NC(=O)C(C)(Cc1ccccc1F)NC(=O)[C@H](CCC(N)=O)NC(=O)[C@@H](NC(=O)[C@H](CCC(=O)O)NC(=O)C(C)(C)NC(=O)[C@@H](NC(=O)C(C)(C)N)C(C)C)[C@@H](C)CC)C(=O)N[C@@H](Cc1c[nH]cn1)C(=O)N[C@@H](CCC(N)=O)C(=O)NC(C)(C)C(=O)NC(C)(C)C(=O)NC(C)(Cc1c(F)cccc1F)C(=O)NC(C)(Cc1ccccc1F)C(N)=O (some centres unmarked) [Seq. ID. 570] (H-[Aib]V[Aib]EIQ[ξαMePhe(2-F)][Nle]HQ[Aib][Aib][ξαMePhe(2,6-F2)][ξαMePhe(2-F)]-NH2)
–	46%	1 h	83%	12%	–	8 h	75%	(6) h	(8) h	–	–	CCCC[C@H](NC(=O)C(C)(Cc1ccccc1F)NC(=O)[C@H](CCC(N)=O)NC(=O)[C@@H](NC(=O)[C@H](CCC(=O)O)NC(=O)C(C)(C)NC(=O)[C@@H](NC(=O)C1(N)CCCC1)C(C)C)[C@@H](C)CC)C(=O)N[C@@H](Cc1c[nH]cn1)C(=O)N[C@@H](CCC(N)=O)C(=O)NC(C)(C)C(=O)NC(C)(C)C(=O)NC(C)(Cc1c(F)cccc1F)C(=O)NC(C)(Cc1c(F)cccc1F)C(N)=O (some centres unmarked) [Seq. ID. 580] (H-[Ac5c]V[Aib]EIQ[ξαMePhe(2-F)][Nle]HQ[Aib][Aib][ξαMePhe(2,6-F2)][ξαMePhe(2,6-F2)]-NH2)
> 24 h	00%	–	35%	00%	> 24 h	> 24 h	0%	–	–	–	(5) h	CCCC[C@H](NC(=O)C(C)(Cc1c(F)cccc1F)NC(=O)[C@H](CCC(N)=O)NC(=O)[C@@H](NC(=O)[C@H](CCC(=O)O)NC(=O)C(C)(C)NC(=O)[C@@H](NC(=O)C(C)(C)N)C(C)C)[C@@H](C)CC)C(=O)N[C@@H](Cc1c[nH]cn1)C(=O)N[C@@H](CCC(N)=O)C(=O)NC(C)(C)C(=O)NC(C)(C)C(=O)N[C@@H](CCCNC(=N)N[N+](=O)[O-])C(=O)NC(C)(Cc1ccccc1F)C(N)=O (some centres unmarked) [Seq. ID. 590] (H-[Aib]V[Aib]EIQ[ξαMePhe(2,6-F2)][Nle]HQ[Aib][Aib][Arg(NO2)][ξαMePhe(2-F)]-NH2)
–	40%	1 h	78%	14%	–	8 h	71%	(6) h	(8) h	–	–	CCCC[C@H](NC(=O)[C@H](CC(C)C)NC(=O)[C@H](CCC(N)=O)NC(=O)[C@@H](NC(=O)[C@H](CCC(=O)O)NC(=O)C1(NC(=O)[C@@H](NC(=O)C2(N)CC2)C(C)C)CC1)[C@@H](C)CC)C(=O)N[C@@H](Cc1c[nH]cn1)C(=O)N[C@@H](CCC(N)=O)C(=O)N[C@@H](CCCCNC(=N)N)C(=O)N[C@@H](C)C(=O)N[C@@H](CCCCN)C(=O)NC(Cc1ccc(-c2ccc(OC)cc2CC)cc1)C(=O)N[C@@H](CCCc1ccccc1)C(N)=O (some centres unmarked) [Seq. ID. 610] (H-[Ac3c]V[Ac3c]EIQL[Nle]HQ[hArg]AK[ξBip(2'-Et-4'-OMe)][hhPhe]-NH2)
–	41%	1 h	77%	15%	–	8 h	70%	(6) h	(8) h	–	–	CCc1cc(OC)ccc1-c1ccc(CC(NC(=O)[C@H](CCCCN)NC(=O)[C@H](C)NC(=O)[C@H](CCCCNC(=N)N)NC(=O)[C@H](CCC(N)=O)NC(=O)[C@H](Cc2c[nH]cn2)NC(=O)[C@H](CCSC)NC(=O)[C@H](CC(C)C)NC(=O)[C@H](CCC(N)=O)NC(=O)[C@@H](NC(=O)[C@H](CCC(=O)O)NC(=O)C(C)(C)NC(=O)[C@@H](NC(=O)C2(N)CCCC2)C(C)C)[C@@H](C)CC)C(N)=O)cc1 (some centres unmarked) [Seq. ID. 650] (H-[Ac5c]V[Aib]EIQLMHQ[hArg]AK[ξBip(2'-Et-4'-OMe)]-NH2)
